Assay results reported in article PMC10313368 (The Journal of Clinical Investigation, 2023).
Values joined by “and” are separate entries in the source; they are usually repeats but may differ in a detail not shown here. Identical values can stand only once. Values belong to the molecule of their own block, whether it stands above or below them. Residues, ends and D or L forms follow the SMILES beside them. *: point of attachment. Cbz = O=C(OCc1ccccc1)*

Assays:
HIF-1α = HIF-1α (Homo sapiens, UniProt Q16665); test: Immunoblot of HIF-1α accumulation in MIO-M1 cells cultured in hypoxia; assay type: cell-based; design: endogenous in cells; host or cells: MIO-M1; conditions: MIO-M1, hypoxia 4 hours; MG-132 10 μM, bortezomib 10 μM, bafilomycin 10 nM
Sequence of HIF-1α (Q16665 whole entry): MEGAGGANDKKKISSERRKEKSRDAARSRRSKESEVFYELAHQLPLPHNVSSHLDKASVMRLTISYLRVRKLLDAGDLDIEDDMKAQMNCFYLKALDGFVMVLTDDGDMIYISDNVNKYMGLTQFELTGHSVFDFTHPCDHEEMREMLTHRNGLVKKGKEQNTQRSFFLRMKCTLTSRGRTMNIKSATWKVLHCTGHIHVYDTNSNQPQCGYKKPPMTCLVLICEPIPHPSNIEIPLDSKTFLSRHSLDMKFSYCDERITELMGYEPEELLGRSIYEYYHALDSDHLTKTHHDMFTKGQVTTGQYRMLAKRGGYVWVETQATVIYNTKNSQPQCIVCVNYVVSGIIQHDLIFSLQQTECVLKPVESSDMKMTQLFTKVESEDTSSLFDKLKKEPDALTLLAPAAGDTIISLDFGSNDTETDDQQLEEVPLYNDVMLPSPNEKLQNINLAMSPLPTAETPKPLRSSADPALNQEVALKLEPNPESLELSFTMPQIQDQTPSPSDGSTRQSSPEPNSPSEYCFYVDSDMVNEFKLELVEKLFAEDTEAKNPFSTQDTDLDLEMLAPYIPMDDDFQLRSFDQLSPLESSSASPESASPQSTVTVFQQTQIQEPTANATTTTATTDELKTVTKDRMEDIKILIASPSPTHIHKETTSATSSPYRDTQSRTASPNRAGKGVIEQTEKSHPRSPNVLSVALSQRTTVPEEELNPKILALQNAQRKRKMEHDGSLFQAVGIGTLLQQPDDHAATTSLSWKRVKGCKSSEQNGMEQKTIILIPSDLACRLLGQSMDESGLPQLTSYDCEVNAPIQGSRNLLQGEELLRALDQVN
Method: (§1) MIO-M1, HUVECs, and ARPE19 cells were cultured in DMEM with 10% (vol/vol) FBS (Quality Biological) and 1% penicillin/streptomycin (Cellgro). A hypoxic chamber (Coy Laboratory Product Inc.; Two Glove Model) with 5% CO2, 94% N2, and 1% O2 gas concentration at 37°C was used to culture hypoxic cells. The control cells were cultured in an incubator maintained at 37°C, with 21% O2 and 5% CO2. […] Aflibercept was obtained from the Johns Hopkins University Pharmacy.
(§2) Immunoblot assays. Cells, neurosensory retina, and D120 retinal organoid lysates were subjected
(§3) to 4–15% gradient SDS/PAGE (Invitrogen). Immunoblot (Western blot or WB) assays were
(§4) performed as previously described (1). […]

OIR mice = test: Retinal NV in the oxygen-induced retinopathy (OIR) mouse model; assay type: in vivo; conditions: for OIR NV%: Figure 14D
Description: To characterize the contribution of these other HIF-regulated angiogenic factors to the promotion of ischemia-driven retinal NV in vivo, we used the classic oxygen-induced retinopathy (OIR) model characterized by Smith and colleagues ([35]). In stage 1 of this model, P7 pups are exposed to hyperoxia (75% O2) for 5 consecutive days (P7–P12), resulting in obliteration of the posterior retinal vasculature. In stage 2, pups (at P12) are returned to room air (21% O2). The resulting relative ischemia promotes the expression of angiogenic mediators that stimulate the development of retinal NV (peaking at P17; Figure 2A). […]
(§5) Animal studies. Eight-week-old pathogen-free female C57BL/6 mice were obtained from The Jackson Laboratory (JAX). Timed pregnant C57BL/6 mice were obtained from Charles River Laboratories. Mice heterozygous for HIF-1α have been previously described (2). Mice heterozygous for HIF-2α (strain number: 003266; common name: EPAS1 KO) were purchased […]
(§6) OIR mouse model. OIR experiments were performed as previously described (1, 3). Briefly, C57BL/6 mice were placed in 75% O2 on P7. On P12, the mice were returned to room air and were […]
(§7) (or vehicle) by intravitreal injection. Mice with body weight less than 6 g at P17 were excluded […]
(§8) from analysis. Data were collected from both males and females and the results were combined since there was no apparent difference between sexes. Representative images for selected time points from a minimum of three independent experiments are shown. Data from 3-8 pups were obtained at each time point. […]
(§9) Intraperitoneal (IP) injections. […]
(§10) intraperitoneally using an insulin syringe in OIR pups. […]
(§11) the peritoneal cavity of neonatal C57BL/6 mice and STZ mice at indicated times, and the retinal vasculature and lysates for WB and qPCR were assessed at P17.
(§12) Intraocular injections. Intravitreal injections were performed with a PLI-100A Pico-liter Microinjector (Warner Instruments, Harvard Bioscience) using pulled-glass micropipettes. Each micropipette was calibrated to deliver a 1 μl volume on depression of a foot switch. The mice were anesthetized with a ketamine (100 mg/kg) and xylazine (5mg/kg) mixture, and under a dissecting microscope, the sharpened tip of the micropipette was passed through the sclera just posterior to the limbus into the vitreous cavity and the foot switch was depressed, which caused fluid to […]
penetrate into the vitreous space. […]
mice for vascular permeability test, retinal vasculature, and lysates for WB and qPCR analysis.
Immunoﬂuorescence assays. Details for antibodies are provided in Supplemental Table 1.
Immunofluorescence assays in retinal organoids and mouse retinal tissues were performed as previously described (4). Briefly, mice were sacrificed using CO2 asphyxiation, and the eyes were enucleated and fixed with a solution of 4% paraformaldehyde in PBS (Thermo Scientific™) for two hours at RT, followed by washing with PBS for 10 minutes in a shaker. Retinas were isolated and incubated in 0.5% BSA solution overnight at 4 °C. Retinas were then washed with PBS 3 times for 10 minutes in the shaker and stained with isolectin B4 (Invitrogen; 1:200 dilution in PBS) overnight at 4 °C. After washing 3 times for 10 minutes each in the shaker, the retinas were mounted. Images were captured with Zeiss fluorescent microscope. Eight fields per eye (2 fields per petal) including area of neovascularization were selected and fluorescence intensity was measured by ImageJ software. […]
The eyes were enucleated and immediately immersed in 4% (wt/vol) paraformaldehyde for 2 hours at room temperature. Retinas were isolated and wholemounts prepared on clean glass slides and mounted vitreous side up under coverslips with antifade medium (Vectashield; Vector Laboratories, Burlingame, CA). Images were captured by Zeiss fluorescent microscope or confocal microscopy and fluorescence was quantified by the image J software (National Institutes

[1] = test system: HIF-regulated angiogenic mediators; test: mRNA expression of HIF-regulated vasoactive mediators in OIR mouse retina (qPCR); assay type: in vivo
Method: (§13) Reverse transcription and quantitative real-time PCR. Total RNA was isolated from cultured cells or retinas with PureLinkTM RNA Mini Kit (Invitrogen #12183025), and cDNA was prepared with MuLV Reverse Transcriptase (Applied Biosystems). Quantitative real-time PCR was performed with Power SYBR Green PCR Master Mix (Applied Biosystems) and MyiQ Real-Time PCR Detection System (Bio-Rad). Normalization was done using cyclophilin A for mouse tissue and human cell lines. Primers are listed in Supplemental Table 2. […]
as §5, §6, §7, §8, §9, §10, §11, §12

[2] = test system: STZ-induced diabetic mice; test: Vascular permeability by Evans blue tracer method in STZ mice; assay type: in vivo, mouse; conditions: digoxin treatment, mice hyperglycemic for 6 months
Method: (§14) STZ-induced diabetes mouse model. 8-to-10 week-old male mice received an IP injection of STZ at 40 mg/kg of body weight in 0.1M of citrate buffer (pH 4.5) for 5 consecutive days. Normal chow and 10% sucrose water were provided during this period. 10% sucrose was discontinued and replaced with regular water on experimental day 6. […]
Intraocular injections. Intravitreal injections were performed with a PLI-100A Pico-liter Microinjector (Warner Instruments, Harvard Bioscience) using pulled-glass micropipettes. Each micropipette was calibrated to deliver a 1 μl volume on depression of a foot switch. […]
Images were captured with Zeiss fluorescent microscope. Eight fields per eye (2 fields per petal) including area of neovascularization were selected and fluorescence intensity was measured by ImageJ software. […]
The eyes were enucleated and immediately immersed in 4% (wt/vol) paraformaldehyde for 2 hours at room temperature. […] Images were captured by Zeiss fluorescent microscope or confocal microscopy and fluorescence was quantified by the image J software (National Institutes […]
of Health, Bethesda, MD). Blinded quantification of the number of leaking vessels was performed by manual counting of major leakage from capillaries from retinas of each group. […] Random fields were chosen from retinas where leakages were absent to determine baseline fluorescence that arise from capillaries. […]

[3] = test system: HIF-regulated vasoactive mediators; test: mRNA expression of HIF-regulated vasoactive mediators in retina of STZ-induced diabetic mice (qPCR); assay type: in vivo, mouse
Method: as §13
as §14, with “6. Blood glucose was measured on experimental day 28 after 16 hours fasting and mice with blood glucose level > 250 mg/dL were considered” for “6.”
as §9

HIF-2α = HIF-2α (Homo sapiens, UniProt Q99814); test: Immunoblot of HIF-2α accumulation in MIO-M1 cells cultured in hypoxia; assay type: cell-based; design: endogenous in cells; host or cells: MIO-M1; conditions: MIO-M1, hypoxia 4 hours; MG-132
Sequence of HIF-2α (Q99814 whole entry): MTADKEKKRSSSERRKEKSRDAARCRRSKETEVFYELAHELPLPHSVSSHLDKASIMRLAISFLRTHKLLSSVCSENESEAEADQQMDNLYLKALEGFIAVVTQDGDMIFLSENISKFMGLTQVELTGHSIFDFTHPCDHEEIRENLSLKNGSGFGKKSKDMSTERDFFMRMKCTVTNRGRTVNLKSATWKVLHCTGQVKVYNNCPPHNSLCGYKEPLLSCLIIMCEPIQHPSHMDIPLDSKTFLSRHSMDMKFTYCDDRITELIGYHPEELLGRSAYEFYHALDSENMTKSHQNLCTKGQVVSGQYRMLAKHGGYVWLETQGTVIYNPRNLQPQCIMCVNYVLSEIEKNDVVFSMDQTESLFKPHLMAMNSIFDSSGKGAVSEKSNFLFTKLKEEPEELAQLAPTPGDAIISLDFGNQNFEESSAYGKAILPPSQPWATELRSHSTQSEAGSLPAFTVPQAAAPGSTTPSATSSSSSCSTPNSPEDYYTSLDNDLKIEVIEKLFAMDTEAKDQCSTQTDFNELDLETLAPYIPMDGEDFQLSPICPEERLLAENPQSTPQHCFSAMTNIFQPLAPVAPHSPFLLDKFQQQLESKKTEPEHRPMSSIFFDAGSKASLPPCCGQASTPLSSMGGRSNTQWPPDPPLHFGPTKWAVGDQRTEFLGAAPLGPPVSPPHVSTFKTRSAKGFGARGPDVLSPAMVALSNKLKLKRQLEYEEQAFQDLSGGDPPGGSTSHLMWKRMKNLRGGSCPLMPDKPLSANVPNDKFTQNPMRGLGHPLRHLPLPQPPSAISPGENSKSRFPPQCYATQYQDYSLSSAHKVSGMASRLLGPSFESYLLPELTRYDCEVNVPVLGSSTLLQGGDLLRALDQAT
Method: as §1, §2, §3, §4

[4] = OIR mice P17, Digoxin i.p. 2mg/kg at P12, NON-OIR about 1, replicates, Figure 2C, 2 mg/kg
[5] = digoxin 2 mg/kg i.p. at P12, P17
[6] = STZ mice + Digoxin, control about 1, replicates, Figure 4F

Molecule: CO/C1=C\C(C)=C\[C@@H](C)[C@@H](O)[C@@H](C)C/C(C)=C/C=C/[C@H](OC)[C@@H]([C@@H](C)[C@@H](O)[C@H](C)[C@@]2(O)C[C@@H](O)[C@H](C)[C@@H](C(C)C)O2)OC1=O [bafilomycin, reference compound]
effect of pretreatment on 32-134D inhibition of HIF-1α accumulation (HIF-1α): did not prevent 32-134D from inhibiting HIF-1α accumulation

Molecule: aflibercept: FDA-approved anti-VEGF therapy for DME and PDR [reference compound]
OIR NV% (OIR mice; 100ng i.v., individual values): 10.6252% and 10.4463% and 8.931% and 10.009% and 8.751% and 10.316% | OIR NV% (OIR mice; 200ng i.v., individual values): 6.75% and 9.52% and 8.9161% and 6.123% and 11.2235% and 10.084% | OIR NV% (OIR mice; 400ng i.v., individual values): 2.501% and 5.995% and 9.1174% and 1.799% and 6.421% and 2.903%

effect of pretreatment on 32-134D inhibition of HIF-1α accumulation (HIF-1α): corroborated
Molecule: CC(C)C[C@H](NC(=O)[C@H](Cc1ccccc1)NC(=O)c1cnccn1)B(O)O [bortezomib, reference compound]

Molecule: C[C@H]1O[C@@H](O[C@H]2[C@@H](O)C[C@H](O[C@H]3[C@@H](O)C[C@H](O[C@H]4CC[C@@]5(C)[C@H](CC[C@@H]6[C@@H]5C[C@@H](O)[C@]5(C)[C@@H](C7=CC(=O)OC7)CC[C@]65O)C4)O[C@@H]3C)O[C@@H]2C)C[C@H](O)[C@@H]1O [digoxin, reference compound]
Vegfa mRNA ([1]; OIR mice P17, Digoxin i.p. 2mg/kg at P12, NON-OIR about 1, replicates, Figure 2B, 2 mg/kg): 4.361 and 3.814 and 4.0024 | Angpt2 mRNA [1, 4]: 1.359 and 1.263 and 1.386 | Angptl4 mRNA [1, 4]: 1.389 and 1.31 and 1.599 | Pdgfb mRNA [1, 4]: 3.611 and 3.067 and 2.999 | Ptprb mRNA [1, 4]: 0.8633 and 0.7662 and 0.7639 | Serpine1 mRNA [1, 4]: 13.6912 and 13.3012 and 10.8019 | expression of VEGF in OIR mice (in words) [1, 5]: only modestly inhibiting the expression of VEGF | expression of other vasoactive genes in OIR mice (in words) [1, 5]: modest reduction | neovascular area (%) (OIR mice; OIR mice at P17, single i.p. digoxin 2 mg/kg at P12, individual values, Figure 2A): 0.786% and 0.8973% and 1.637% and 0.108% and 0.7093% and 1.719% | retinal NV in the OIR model (in words) (OIR mice; digoxin 2 mg/kg single i.p. at P12, read at P17): prevented retinal NV | vascular permeability in STZ mice (in words) [2]: decreased vascular permeability | Angptl4 mRNA [3, 6]: 0.6214 and 1.778 and 1.462 | Vegfa mRNA [3, 6]: 0.79 and 0.8827 and 0.5987 | Vegf and Angptl4 mRNA expression in STZ mice (in words) ([3]; digoxin treatment): decrease in Vegf and Angptl4 mRNA expression to levels similar to those in nondiabetic mice

Molecule: CC(C)C[C@@H](C=O)NC(=O)[C@H](CC(C)C)NC(=O)[C@H](CC(C)C)NC(=O)OCc1ccccc1 [MG-132, reference compound] (Cbz-Leu-Leu-Leu-aldehyde)
effect of pretreatment on 32-134D inhibition of HIF-1α accumulation (HIF-1α): prevented the ability of 32-134D to block HIF-1α and HIF-2α protein accumulation | effect of pretreatment on 32-134D inhibition of HIF-2α accumulation (HIF-2α): prevented the ability of 32-134D to block HIF-1α and HIF-2α protein accumulation
